Here are results for 21 molecules from PubChem BioAssay AID318 (DTP/NCI, 2004).

Where “and” joins values, the source holds several entries; their conditions need not be identical. Equal values may be shown once. Toxic doses and inconclusive results are not listed.

The test system of the assay is BDF1 mice, P815 leukemia ip, survival T/C. The assay can be described thus: NCI In Vivo Anticancer Drug Screen. Data for tumor model P815 Mast Cell Leukemia (Ascitic) (intraperitoneal) in B6D2F1 (BDF1) mice. The note with it: endpoint: survival time, mean or median, higher = longer survival. Here is the method:
The antitumor activity of compounds was measured in mice bearing transplantable tumors. Survival or tumor size were measured and the results are expressed as the measurement made in the treated group (T) divided by the measurement made in the vehicle treated control group (C). The tumor model used in this assay is P815 Mast Cell Leukemia (Ascitic) (intraperitoneal) in B6D2F1 (BDF1) mice

Setting [1] is: dose: 2.5 mg/kg/injection, schedule: Q01DX010 (ip), vehicle: saline.
The mark [2] stands for this setting: dose: 25.0 mg/kg/injection, schedule: Q01DX010 (ip), vehicle: saline.
Where [3] appears, read: dose: 50.0 mg/kg/injection, schedule: Q01DX010 (ip), vehicle: saline.
[4] abbreviates: dose: 100.0 mg/kg/injection, schedule: Q01DX010 (ip), vehicle: saline.
[5] abbreviates: dose: 200.0 mg/kg/injection, schedule: Q01DX010 (ip), vehicle: saline.
Where [6] appears, read: dose: 31.3 mg/kg/injection, schedule: Q01DX010 (ip), vehicle: saline.
The mark [7] stands for this setting: dose: 62.5 mg/kg/injection, schedule: Q01DX010 (ip), vehicle: saline.
Where [8] appears, read: dose: 125.0 mg/kg/injection, schedule: Q01DX010 (ip), vehicle: saline.
The mark [9] stands for this setting: dose: 250.0 mg/kg/injection, schedule: Q01DX010 (ip), vehicle: saline.
The mark [10] stands for this setting: dose: 0.25 mg/kg/injection, schedule: Q01DX010 (ip), vehicle: saline.
[11] abbreviates: dose: 10.0 mg/kg/injection, schedule: Q01DX010 (ip), vehicle: saline.
Where [12] appears, read: dose: 3.13 mg/kg/injection, schedule: Q01DX010 (ip), vehicle: saline.
Where [13] appears, read: dose: 6.25 mg/kg/injection, schedule: Q01DX010 (ip), vehicle: saline.
[14] abbreviates: dose: 12.5 mg/kg/injection, schedule: Q01DX010 (ip), vehicle: saline.

For the molecule `S=P(N1CCOCC1)(N1CC1)N1CC1`, the T/C by setting is: under setting [1], 97 % of control and 100 % of control; (dose: 40.0 mg/kg/injection, schedule: Q01DX010 (ip), vehicle: saline) 100 % of control.

`CS(=O)(=O)OCC(O)C(O)C(O)C(O)COS(C)(=O)=O` (stereo unspecified): the T/C is, setting by setting: under setting [2], 100 % of control; under setting [3], 100 % of control and 112 % of control; under setting [4], 95 % of control and 112 % of control; under setting [5], 95 % of control and 112 % of control; (dose: 400.0 mg/kg/injection, schedule: Q01DX010 (ip), vehicle: saline) 112 % of control.

On to `CN(C)CC(=O)c1ccc(O)c(O)c1`, for which the T/C reads like this: under setting [5], 120 % of control; (dose: 300.0 mg/kg/injection, schedule: Q01DX010 (ip), vehicle: saline) 100 % of control; (dose: 450.0 mg/kg/injection, schedule: Q01DX010 (ip), vehicle: saline) 95 % of control.

On to `CN=C(NC)c1ccc(NC(=O)Nc2ccc(NC(=O)Nc3ccc(C(=NC)NC)cc3)cc2)cc1`, for which the T/C is 108 % of control (dose: 13.3 mg/kg/injection, schedule: Q01DX010 (ip), vehicle: saline) and 112 % of control (dose: 20.0 mg/kg/injection, schedule: Q01DX010 (ip), vehicle: saline).

With `CC(=O)OCC1OC(n2cnc3c(=S)nc(N)[nH]c32)C(OC(C)=O)C1OC(C)=O` (stereo unspecified), the T/C (dose: 1.5 mg/kg/injection, schedule: Q01DX015 (ip), vehicle: other) is 113 % of control; the T/C (dose: 3.1 mg/kg/injection, schedule: Q01DX015 (ip), vehicle: other) was 110 % of control; the T/C (dose: 6.2 mg/kg/injection, schedule: Q01DX015 (ip), vehicle: other) is 108 % of control; the T/C (dose: 12.5 mg/kg/injection, schedule: Q01DX015 (ip), vehicle: other) was 88 % of control.

For the molecule `N=C(N)c1ccc(Nc2ccc(C(=N)N)cc2)cc1`, the T/C is, setting by setting: (dose: 3.0 mg/kg/injection, schedule: Q01DX010 (ip), vehicle: saline) 94 % of control and 100 % of control; (dose: 6.0 mg/kg/injection, schedule: Q01DX010 (ip), vehicle: saline) 100 % of control; (dose: 12.0 mg/kg/injection, schedule: Q01DX010 (ip), vehicle: saline) 88 % of control and 100 % of control; (dose: 24.0 mg/kg/injection, schedule: Q01DX010 (ip), vehicle: saline) 87 % of control.

For the molecule `CC(=O)Nc1ccc(/C=N/Nc2ccc([N+](=O)[O-])cn2)cc1`, the T/C by setting is: under setting [6], 100 % of control; under setting [7], 100 % of control; under setting [8], 100 % of control; under setting [9], 88 % of control.

With `C1CN1c1nc(N2CC2)nc(N2CC2)n1`, the T/C is 111 % of control (dose: 0.13 mg/kg/injection, schedule: Q01DX010 (ip), vehicle: saline); 111 % of control under setting [10]; 100 % of control (dose: 125.0 micrograms/kg/injection, schedule: Q01DX010 (ip), vehicle: saline); 105 % of control (dose: 250.0 micrograms/kg/injection, schedule: Q01DX010 (ip), vehicle: saline); 94 % of control (dose: 1000.0 micrograms/kg/injection, schedule: Q01DX010 (ip), vehicle: saline).

On to `CCCSc1ncnc2nc[nH]c12`, for which the T/C is 100 % of control and 111 % of control under setting [6]; 111 % of control under setting [7]; 111 % of control and 122 % of control under setting [8].

For the molecule `Oc1cc(CN(CCCl)CCCl)c(O)cc1CN(CCCl)CCCl`, the T/C reads like this: (dose: 0.63 mg/kg/injection, schedule: Q01DX010 (ip), vehicle: saline) 111 % of control; (dose: 1.25 mg/kg/injection, schedule: Q01DX010 (ip), vehicle: saline) 116 % of control and 122 % of control; under setting [1], 172 % of control; (dose: 5.0 mg/kg/injection, schedule: Q01DX010 (ip), vehicle: saline) 122 % of control; under setting [11], 122 % of control.

Turning to `CN(C)[C@@H]1C(=O)C(C(N)=O)=C(O)[C@@]2(O)C(=O)C3=C(O)c4c(O)cccc4C[C@H]3C[C@@H]12`, the T/C (dose: 30.0 mg/kg/injection, schedule: Q01DX015 (ip), vehicle: alkali diluted with saline) was 117 % of control.

For `O=C(Nc1ccc(C2=NCCN2)cc1)Nc1cccc(NC(=O)Nc2ccc(C3=NCCN3)cc2)c1`, the T/C was 258 % of control and 276 % of control (dose: 120.0 mg/kg/injection, schedule: Q01DX010 (ip), vehicle: saline); 88 % of control and 92 % of control (dose: 240.0 mg/kg/injection, schedule: Q01DX010 (ip), vehicle: saline).

As for `N#C[C@@H]1C2C=CC(CC2)[C@H]1C#N`, the T/C was 100 % of control under setting [10]; 100 % of control and 105 % of control (dose: 0.5 mg/kg/injection, schedule: Q01DX010 (ip), vehicle: saline); 100 % of control (dose: 1.0 mg/kg/injection, schedule: Q01DX010 (ip), vehicle: saline); 88 % of control and 100 % of control (dose: 2.0 mg/kg/injection, schedule: Q01DX010 (ip), vehicle: saline).

On to `CCn1cnc2c(=S)nc[nH]c21`, for which the T/C is 94 % of control (dose: 15.6 mg/kg/injection, schedule: Q01DX010 (ip), vehicle: saline); 98 % of control and 102 % of control under setting [6]; 97 % of control under setting [7].

On to `COc1ccc(C[n+]2cc([O-])on2)cc1`, for which the T/C is 111 % of control (dose: 12.5 mg/kg/injection, schedule: Q01DX015 (ip), vehicle: carboxymethylcellulose (CMC)); 114 % of control (dose: 25.0 mg/kg/injection, schedule: Q01DX015 (ip), vehicle: carboxymethylcellulose (CMC)); 107 % of control (dose: 100.0 mg/kg/injection, schedule: Q01DX015 (ip), vehicle: carboxymethylcellulose (CMC)).

As for `O=C1C(NC(=O)C2CCCCC2)=C(N2CC2)C(=O)C(NC(=O)C2CCCCC2)=C1N1CC1`, the T/C by setting is: under setting [3], 88 % of control; under setting [4], 94 % of control.

As to `[I][Hg][CH2]C1COC([CH2][Hg][I])CO1` (stereo unspecified), the T/C reads like this: under setting [12], 90 % of control; under setting [13], 90 % of control; under setting [14], 95 % of control; under setting [2], 90 % of control.

For `C[C@H]1C(=O)O[C@@H]2CCN3CC=C(COC(=O)[C@](C)(O)[C@@]1(C)O)[C@H]23`, the T/C reads like this: under setting [12], 94 % of control and 100 % of control; under setting [13], 100 % of control and 105 % of control; under setting [14], 88 % of control and 94 % of control; under setting [2], 100 % of control.

As for `O=c1cn[nH]c(=O)[nH]1`, the T/C was 91 % of control and 95 % of control under setting [7]; 91 % of control and 100 % of control under setting [8]; 95 % of control under setting [9]; 100 % of control and 104 % of control (dose: 500.0 mg/kg/injection, schedule: Q01DX010 (ip), vehicle: saline).

In the case of `CC1CN=C(c2ccc(NC(=O)c3ccc(C(=O)Nc4ccc(C5=NCC(C)N5)cc4)cc3)cc2)N1` (stereo unspecified), the T/C under setting [11] was 165 % of control; the T/C (dose: 15.0 mg/kg/injection, schedule: Q01DX010 (ip), vehicle: saline) was 156 % of control; the T/C (dose: 22.0 mg/kg/injection, schedule: Q01DX010 (ip), vehicle: saline) is 182 % of control; the T/C (dose: 33.0 mg/kg/injection, schedule: Q01DX010 (ip), vehicle: saline) is 186 % of control.

For `O=C(Nc1ccc(C2=NCCN2)cc1)c1cccc(C(=O)Nc2ccc(C3=NCCN3)cc2)c1`, the T/C reads like this: (dose: 8.0 mg/kg/injection, schedule: Q01DX010 (ip), vehicle: saline) 118 % of control; (dose: 32.0 mg/kg/injection, schedule: Q01DX010 (ip), vehicle: saline) 200 % of control and 160 % of control; (dose: 64.0 mg/kg/injection, schedule: Q01DX010 (ip), vehicle: saline) 181 % of control and 233 % of control.
